PubChem BioAssay AID200 (DTP/NCI, 2004)
Where “and” joins values, the source holds several entries; their conditions need not be identical. Equal entries are not always repeated. Inconclusive results and toxic doses are left out.

Tested on: B6C3F1 mice, B16 melanoma ip, median survival T/C
Assay: NCI In Vivo Anticancer Drug Screen. Data for tumor model B16 Melanoma (intraperitoneal) in B6C3F1 mice
Conditions: endpoint: median survival time, higher = longer survival
Protocol: The antitumor activity of compounds was measured in mice bearing transplantable tumors. Survival or tumor size were measured and the results are expressed as the measurement made in the treated group (T) divided by the measurement made in the vehicle treated control group (C). The tumor model used in this assay is B16 Melanoma (intraperitoneal) in B6C3F1 mice

[1] = dose: 0.39 mg/kg/injection, schedule: Q01DX009 (ip), vehicle: Klucel (hydroxypropylcellulose) (HPC)
[2] = dose: 0.78 mg/kg/injection, schedule: Q01DX009 (ip), vehicle: Klucel (hydroxypropylcellulose) (HPC)
[3] = dose: 1.56 mg/kg/injection, schedule: Q01DX009 (ip), vehicle: Klucel (hydroxypropylcellulose) (HPC)
[4] = dose: 3.12 mg/kg/injection, schedule: Q01DX009 (ip), vehicle: Klucel (hydroxypropylcellulose) (HPC)
[5] = dose: 6.25 mg/kg/injection, schedule: Q01DX009 (ip), vehicle: Klucel (hydroxypropylcellulose) (HPC)
[6] = dose: 50.0 mg/kg/injection, schedule: Q01DX009 (ip), vehicle: Klucel (hydroxypropylcellulose) (HPC)
[7] = dose: 25.0 mg/kg/injection, schedule: Q01DX009 (ip), vehicle: Klucel (hydroxypropylcellulose) (HPC)
[8] = dose: 100.0 mg/kg/injection, schedule: Q01DX009 (ip), vehicle: Klucel (hydroxypropylcellulose) (HPC)
[9] = dose: 12.5 mg/kg/injection, schedule: Q01DX009 (ip), vehicle: Klucel (hydroxypropylcellulose) (HPC)
[10] = dose: 200.0 mg/kg/injection, schedule: Q01DX009 (ip), vehicle: Klucel (hydroxypropylcellulose) (HPC)

Q: What does the source list for `CCC/C=C/C=C/C(=O)OC1/C(=C/C(=O)OC)CC2CC(C(C)O)OC(=O)CC(O)CC3CC(OC(C)=O)C(C)(C)C(O)(CC4C/C(=C/C(=O)OC)CC(/C=C/C(C)(C)C1(O)O2)O4)O3` (centres undefined)?
A: T/C (dose: 4.69 micrograms/kg/injection, schedule: Q01DX009 (ip), vehicle: saline + alcohol): 94 % of control; T/C (dose: 9.38 micrograms/kg/injection, schedule: Q01DX009 (ip), vehicle: saline + alcohol): 100 % of control; T/C (dose: 18.75 micrograms/kg/injection, schedule: Q01DX009 (ip), vehicle: saline + alcohol): 116 % of control and 104 % of control; T/C (dose: 37.5 micrograms/kg/injection, schedule: Q01DX009 (ip), vehicle: saline + alcohol): 111 % of control and 96 % of control; T/C (dose: 75.0 micrograms/kg/injection, schedule: Q01DX009 (ip), vehicle: saline + alcohol): 99 % of control and 105 % of control

Q: How did the T/C (dose: 12.5 mg/kg/injection, schedule: Q01DX009 (ip), vehicle: saline with Tween-80) turn out when `CCOC(=O)N1CCN(CCCCCOc2ccccc2C2CCCCC2)CC1` was run?
A: The T/C was 108 % of control.

Q: What about the T/C (dose: 25.0 mg/kg/injection, schedule: Q01DX009 (ip), vehicle: saline with Tween-80) of the same compound?
A: The T/C was 96 % of control.

Q: And the T/C (dose: 50.0 mg/kg/injection, schedule: Q01DX009 (ip), vehicle: saline with Tween-80)?
A: The T/C was 87 % of control.

Q: Which T/C (dose: 122.5 mg/kg/injection, schedule: Q01DX009 (ip), vehicle: saline) does the source give for `CC(=O)N(C)C` here?
A: Its T/C is 89 % of control.

Q: And the T/C (dose: 225.0 mg/kg/injection, schedule: Q01DX009 (ip), vehicle: saline)?
A: Its T/C is 95 % of control.

Q: And the T/C (dose: 450.0 mg/kg/injection, schedule: Q01DX009 (ip), vehicle: saline)?
A: Its T/C is 95 % of control.

Q: And the T/C (dose: 900.0 mg/kg/injection, schedule: Q01DX009 (ip), vehicle: saline)?
A: Its T/C is 105 % of control.

Q: And the T/C (dose: 1800.0 mg/kg/injection, schedule: Q01DX009 (ip), vehicle: saline)?
A: Its T/C is 114 % of control.

Q: Which results are given for `CC(C)CC(NC(=O)C(O)C(N)Cc1ccccc1)C(=O)O` (centres undefined)?
A: T/C (dose: 10.0 micrograms/kg/injection, schedule: Q01DX005 (ip), vehicle: saline): 99 % of control; T/C (dose: 10.0 micrograms/kg/injection, schedule: Q01DX005 (oral), vehicle: saline): 100 % of control; T/C (dose: 10.0 micrograms/mouse/injection, schedule: Q01DX006 (ip), vehicle: saline): 101 % of control; T/C (dose: 20.0 micrograms/mouse/injection, schedule: Q01DX006 (oral), vehicle: saline): 95 % of control; T/C (dose: 100.0 micrograms/kg/injection, schedule: Q01DX005 (ip), vehicle: saline): 96 % of control; T/C (dose: 100.0 micrograms/kg/injection, schedule: Q01DX005 (oral), vehicle: saline): 98 % of control; T/C (dose: 100.0 micrograms/mouse/injection, schedule: Q01DX006 (ip), vehicle: saline): 108 % of control; T/C (dose: 200.0 micrograms/mouse/injection, schedule: Q01DX006 (oral), vehicle: saline): 102 % of control

Q: How did the T/C (dose: 0.5 mg/kg/injection, schedule: Q01DX009 (ip), vehicle: saline) turn out when `Cc1c(N)nc(C(CC(N)=O)NCC(N)C(N)=O)nc1C(=O)NC(C(=O)NC(C)C(O)CC(=O)NC(C(=O)NC(OC1OC(C)C(N)C(O)C1O)C(O)c1nc(-c2nc(C(=O)NCCCC(N)CC(=O)NCCCNCCCCN)cs2)cs1)C(C)O)C(OC1OC(CO)C(O)C(O)C1OC1OC(CO)C(O)C(OC(N)=O)C1O)c1cnc[nH]1` (centres undefined) was run?
A: Its T/C is 120 % of control.

Q: For `O=C(CCBr)NCCNC(=O)CCBr`, which T/C (dose: 43.7 mg/kg/injection, schedule: Q01DX009 (ip), vehicle: saline with Tween-80) is on record?
A: Its T/C is 96 % of control.

Q: And the T/C (dose: 87.5 mg/kg/injection, schedule: Q01DX009 (ip), vehicle: saline with Tween-80)?
A: The T/C was 100 % of control.

Q: What about the T/C (dose: 175.0 mg/kg/injection, schedule: Q01DX009 (ip), vehicle: saline with Tween-80) of the same compound?
A: The T/C was 98 % of control.

Q: Which results are given for `COC(=O)[C@@]12OC[C@]34[C@H]([C@@H](O)[C@@H]1O)[C@@]1(C)CC(=O)C(O)=C(C)[C@@H]1C[C@H]3OC(=O)[C@H](OC(=O)CC(C)C)[C@@H]24`?
A: T/C (dose: 1.0 mg/kg/injection, schedule: Q01DX009 (ip), vehicle: saline + alcohol): 156 % of control and 157 % of control; T/C (dose: 2.0 mg/kg/injection, schedule: Q01DX009 (ip), vehicle: saline + alcohol): 180 % of control

Q: With `CCCN(CCC)C(C)C(O)c1cc2c(c3ccccc13)CCCC2` (centres undefined) as the compound, how does the T/C (dose: 0.05 mg/kg/injection, schedule: Q01DX009 (ip), vehicle: Klucel (hydroxypropylcellulose) (HPC)) read?
A: The T/C was 99 % of control.

Q: And the T/C (dose: 0.1 mg/kg/injection, schedule: Q01DX009 (ip), vehicle: Klucel (hydroxypropylcellulose) (HPC))?
A: Its T/C is 91 % of control and 103 % of control.

Q: What about the T/C (dose: 0.2 mg/kg/injection, schedule: Q01DX009 (ip), vehicle: Klucel (hydroxypropylcellulose) (HPC)) of the same compound?
A: Its T/C is 97 % of control and 107 % of control.

Q: And the T/C [1]?
A: Its T/C is 109 % of control.

Q: What about the T/C (dose: 0.4 mg/kg/injection, schedule: Q01DX009 (ip), vehicle: Klucel (hydroxypropylcellulose) (HPC)) of the same compound?
A: Its T/C is 96 % of control and 101 % of control.

Q: And the T/C [2]?
A: Its T/C is 108 % of control.

Q: What about the T/C [3] of the same compound?
A: Its T/C is 114 % of control and 95 % of control and 96 % of control.

Q: What about the T/C [4] of the same compound?
A: The T/C was 94 % of control.

Q: And the T/C [5]?
A: Its T/C is 96 % of control and 101 % of control.

Q: What about the T/C [6] of the same compound?
A: The T/C was 86 % of control.

Q: `O=C1C=C(Nc2ccccc2)c2ccccc2C1=O` was tested. Which T/C [7] did it give?
A: The T/C was 104 % of control.

Q: And the T/C [6]?
A: Its T/C is 96 % of control.

Q: And the T/C [8]?
A: The T/C was 91 % of control.

Q: What does the source list for `O=C(O)C1CSCN1` (centres undefined)?
A: T/C [1]: 95 % of control; T/C [2]: 99 % of control; T/C [3]: 97 % of control; T/C (dose: 1.56 mg/kg/injection, schedule: Q01DX009 (ip), vehicle: saline): 96 % of control; T/C [4]: 86 % of control; T/C (dose: 3.12 mg/kg/injection, schedule: Q01DX009 (ip), vehicle: saline): 86 % of control; T/C [5]: 93 % of control; T/C (dose: 6.25 mg/kg/injection, schedule: Q01DX009 (ip), vehicle: saline): 90 % of control and 107 % of control; T/C [9]: 87 % of control; T/C (dose: 12.5 mg/kg/injection, schedule: Q01DX009 (ip), vehicle: saline): 116 % of control and 98 % of control and 102 % of control; T/C (dose: 25.0 mg/kg/injection, schedule: Q01DX009 (ip), vehicle: saline): 117 % of control and 104 % of control; T/C (dose: 50.0 mg/kg/injection, schedule: Q01DX009 (ip), vehicle: saline): 110 % of control and 121 % of control; T/C (dose: 100.0 mg/kg/injection, schedule: Q01DX009 (ip), vehicle: saline): 112 % of control and 101 % of control

Q: What does the source list for `S=C1NCc2cncnc2N1`?
A: T/C [4]: 108 % of control; T/C [5]: 107 % of control; T/C [9]: 88 % of control and 102 % of control

Q: Which results are given for `O=C1C=CC(=Nc2ccc3c(c2)C(Br)c2ccccc2-3)O1` (centres undefined)?
A: T/C (dose: 5.0 mg/kg/injection, schedule: Q01DX009 (ip), vehicle: saline): 92 % of control; T/C (dose: 10.0 mg/kg/injection, schedule: Q01DX009 (ip), vehicle: saline): 87 % of control

Q: For `Cc1ccc(C(=O)NC2C(=O)NC(C(C)C)C(=O)N3CCCC3C(=O)N(C)CC(=O)N(C)C(C(C)C)C(=O)OC2C)c2c1Oc1c(c(C(=O)NC3C(=O)NC(C(C)C)C(=O)N4CCCC4C(=O)N(C)CC(=O)N(C)C(C(C)C)C(=O)OC3C)c3nc(-c4ccccc4)c(=O)oc3c1C)N2` (centres undefined), which T/C (dose: 0.5 mg/kg/injection, schedule: Q01DX009 (ip), vehicle: water) is on record?
A: The T/C was 157 % of control.

Q: Which results are given for `O=NN(CCF)C(=O)NCCO`?
A: T/C (dose: 15.0 mg/kg/injection, schedule: Q01DX001 (ip), vehicle: saline): 181 % of control; T/C (dose: 30.0 mg/kg/injection, schedule: Q01DX001 (ip), vehicle: saline): 221 % of control; T/C (dose: 60.0 mg/kg/injection, schedule: Q01DX001 (ip), vehicle: saline): 250 % of control

Q: Which results are given for `CN=C(NC#N)NCCSCc1nc[nH]c1C`?
A: T/C [9]: 114 % of control; T/C [7]: 96 % of control; T/C [6]: 104 % of control; T/C [8]: 101 % of control; T/C [10]: 102 % of control; T/C (dose: 400.0 mg/kg/injection, schedule: Q01DX009 (ip), vehicle: Klucel (hydroxypropylcellulose) (HPC)): 98 % of control

Q: How did the T/C [10] turn out when `CCCCC(NC(=O)OCc1ccccc1)C(=O)NC(Cc1c[nH]c2ccccc12)C(=O)O` (centres undefined) was run?
A: Its T/C is 103 % of control.
